In patent US20250051337A1 (priority 2021, published 2025):
Where two headings read alike, the source gives them in different places.

Tests used:
STK4 = STK4 (Homo sapiens (Human), UniProt Q13043); assay: ADP-Glo kinase assay, STK4; type: biochemical
Protocol: (§1) The STK3 kinase assay was performed in 5 μL reaction buffer containing 50 ng recombinant human STK3 protein (full length, SignalChem #S24-10G; Richmond, Canada), 250 μg/mL myelin basic protein (Sigma-Aldrich #M1891; St. Louis, MO, USA), and 50 μM ATP (Sigma-Aldrich #A7699). The STK4 kinase assay was performed in 5 μL reaction buffer containing 50 ng recombinant human STK4 protein (full length, SignalChem #S25-10G), 300 μg/mL Axltide (SignalChem #A16-58), and 50 μM ATP. […] Three experiments were performed, each in triplicate.

STK3 = STK3 (Homo sapiens (Human), UniProt Q13188); assay: ADP-Glo kinase assay, STK3; type: biochemical
STK3, sequence (Q13188 whole entry): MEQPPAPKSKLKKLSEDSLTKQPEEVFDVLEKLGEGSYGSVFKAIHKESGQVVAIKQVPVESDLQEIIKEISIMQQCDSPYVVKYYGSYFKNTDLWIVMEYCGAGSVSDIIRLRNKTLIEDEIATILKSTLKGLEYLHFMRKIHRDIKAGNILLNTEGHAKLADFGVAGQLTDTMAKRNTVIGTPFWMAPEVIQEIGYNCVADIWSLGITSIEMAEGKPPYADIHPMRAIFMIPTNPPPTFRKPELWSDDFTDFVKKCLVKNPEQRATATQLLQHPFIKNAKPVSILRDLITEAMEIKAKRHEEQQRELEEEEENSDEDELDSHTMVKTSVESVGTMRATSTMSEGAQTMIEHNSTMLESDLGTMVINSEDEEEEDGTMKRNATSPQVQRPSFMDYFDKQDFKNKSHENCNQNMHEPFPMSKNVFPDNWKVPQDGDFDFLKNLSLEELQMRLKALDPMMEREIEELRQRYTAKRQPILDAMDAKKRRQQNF
Protocol: as §1

[1] = ADP-Glo, 50 μM ATP, read-out: STK4 IC50
[2] = ADP-Glo, 50 μM ATP, read-out: STK3 IC50

STK4, sequence (Q13043 whole entry): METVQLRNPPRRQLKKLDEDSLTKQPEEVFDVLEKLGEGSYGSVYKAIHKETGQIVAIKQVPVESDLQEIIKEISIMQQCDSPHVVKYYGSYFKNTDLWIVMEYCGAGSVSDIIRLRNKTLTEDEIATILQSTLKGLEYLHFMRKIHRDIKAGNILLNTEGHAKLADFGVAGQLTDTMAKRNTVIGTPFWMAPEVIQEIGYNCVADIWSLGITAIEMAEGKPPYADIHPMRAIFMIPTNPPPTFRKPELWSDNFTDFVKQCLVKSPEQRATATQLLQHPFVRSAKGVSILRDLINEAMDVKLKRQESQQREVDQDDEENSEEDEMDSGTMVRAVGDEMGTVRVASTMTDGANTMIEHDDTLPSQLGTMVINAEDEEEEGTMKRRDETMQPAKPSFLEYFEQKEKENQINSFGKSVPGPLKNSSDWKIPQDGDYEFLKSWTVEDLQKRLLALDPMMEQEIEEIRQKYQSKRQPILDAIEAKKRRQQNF

SMILES | IC50 (STK4; [1]) | IC50 (STK3; [2]) | IC50 (STK4) | IC50 (STK3)
Clc1cc(-c2c[nH]c3ncnc(N4CCOCC4)c23)ccn1 [Compound 31, 4-(5-(2-chloropyridin-4-yl)-7H-pyrrolo[2,3-d]pyrimidin-4-yl)morpholine] | 1 to 5 µM | 1 to 5 µM |  | 
NS(=O)(=O)c1ccc(Nc2nc(N3CCOCC3)c3c(-c4cccc(Cl)c4)c[nH]c3n2)cc1 [Compound 96, 4-((5-(3-chlorophenyl)-4-morpholino-7H-pyrrolo[2,3-d]pyrimidin-2-yl)amino)benzenesulfonamide] | < 1 µM | 1 to 5 µM |  | 
Clc1ccccc1-c1c[nH]c2ncnc(N3CCOCC3)c12 [Compound 24, 4-(5-(2-Chlorophenyl)-7H-pyrrolo[2,3-d]pyrimidin-4-yl)morpholine] | 1 to 5 µM | 1 to 5 µM |  | 
Clc1cccc(-c2c[nH]c3ncnc(N4CCC(c5ccccc5)CC4)c23)c1 [Compound 87, 5-(3-chlorophenyl)-4-(4-phenylpiperidin-1-yl)-7H-pyrrolo[2,3-d]pyrimidine] | > 5 µM | > 5 µM |  | 
CCCCNc1ncnc2[nH]cc(-c3cccc(Cl)c3)c12 [Compound 116, N-butyl-5-(3-chlorophenyl)-7H-pyrrolo[2,3-d]pyrimidin-4-amine] | < 1 µM | < 1 µM |  | 
CC(CNc1ncnc2[nH]cc(-c3cccc(Cl)c3)c12)C(=O)O (stereo not shown) [Compound 126, 3-((5-(3-chlorophenyl)-7H-pyrrolo[2,3-d]pyrimidin-4-yl)amino)-2-methylpropanoic acid] | 1 to 5 µM | 1 to 5 µM |  | 
Cc1noc(C)c1-c1c[nH]c2ncnc(N3CCOCC3)c12 [Compound 43, 4-(5-(3,5-dimethylisoxazol-4-yl)-7H-pyrrolo[2,3-d]pyrimidin-4-yl)morpholine] | > 5 µM | > 5 µM |  | 
Clc1cccc(-c2c[nH]c3ncnc(NCc4ccc(Cl)nc4)c23)c1 [Compound 86, 5-(3-chlorophenyl)-N-((6-chloropyridin-3-yl)methyl)-7H-pyrrolo[2,3-d]pyrimidin-4-amine] | > 5 µM | > 5 µM |  | 
N#Cc1ccc(Nc2nc(N3CCOCC3)c3c(-c4cccc(Cl)c4)c[nH]c3n2)cc1 [Compound 120, 4-((5-(3-chlorophenyl)-4-morpholino-7H-pyrrolo[2,3-d]pyrimidin-2-yl)amino)benzonitrile] | > 5 µM | > 5 µM |  | 
CC(O)CNc1ncnc2[nH]cc(-c3cccc(Cl)c3)c12 (stereo not shown) [Compound 104, 1-((5-(3-chlorophenyl)-7H-pyrrolo[2,3-d]pyrimidin-4-yl)amino)propan-2-ol] | < 1 µM | < 1 µM |  | 
O=[N+]([O-])c1ccc(Nc2nc(N3CCOCC3)c3c(-c4cccc(Cl)c4)c[nH]c3n2)cc1 [Compound 101, 5-(3-chlorophenyl)-4-morpholino-N-(4-nitrophenyl)-7H-pyrrolo[2,3-d]pyrimidin-2-amine] | > 5 µM | > 5 µM |  | 
Clc1cccc(-c2n[nH]c3ncnc(N4CCOCC4)c23)c1 [Compound 19, 4-(3-(3-chlorophenyl)-1H-pyrazolo[3,4-d]pyrimidin-4-yl)morpholine] |  |  | 1 to 5 µM | 1 to 5 µM
O=C1CCN(c2ncnc3[nH]cc(-c4cccc(Cl)c4)c23)CC1 [Compound 118, 1-(5-(3-chlorophenyl)-7H-pyrrolo[2,3-d]pyrimidin-4-yl)piperidin-4-one] | < 1 µM |  |  | 1 to 5 µM
Clc1ccc(-c2c[nH]c3ncnc(N4CCOCC4)c23)cc1 [Compound 25, 4-(5-(4-Chlorophenyl)-7H-pyrrolo[2,3-d]pyrimidin-4-yl)morpholine] | 1 to 5 µM | < 1 µM |  | 
Cn1cc(-c2c[nH]c3ncnc(N4CCOCC4)c23)cn1 [Compound 41, 4-(5-(1-methyl-1H-pyrazol-4-yl)-7H-pyrrolo[2,3-d]pyrimidin-4-yl)morpholine] | < 1 µM | 1 to 5 µM |  | 
Clc1cccc(-c2c[nH]c3ncnc(NCc4cnco4)c23)c1 [Compound 75, 5-(3-chlorophenyl)-N-(oxazol-5-ylmethyl)-7H-pyrrolo[2,3-d]pyrimidin-4-amine] | > 5 µM | > 5 µM |  | 
CN(C)C1CCN(c2ncnc3[nH]cc(-c4cccc(Cl)c4)c23)CC1 [Compound 107, 1-(5-(3-chlorophenyl)-7H-pyrrolo[2,3-d]pyrimidin-4-yl)-N,N-dimethylpiperidin-4-amine] | < 1 µM | < 1 µM |  | 
Clc1cccc(-c2c[nH]c3ncnc(NCC4CCCCCC4)c23)c1 [Compound 84, 5-(3-chlorophenyl)-N-(cycloheptylmethyl)-7H-pyrrolo[2,3-d]pyrimidin-4-amine] | > 5 µM | > 5 µM |  | 
Clc1cccc(-c2c[nH]c3ncnc(NCc4ccoc4)c23)c1 [Compound 62, 5-(3-chlorophenyl)-N-(furan-3-ylmethyl)-7H-pyrrolo[2,3-d]pyrimidin-4-amine] | < 1 µM | < 1 µM |  | 

SMILES | IC50 (STK4; [1]) | IC50 (STK3; [2]) | IC50 (STK4) | IC50 (STK3)
CC(CO)CNc1ncnc2[nH]cc(-c3cccc(Cl)c3)c12 (stereo not shown) [Compound 117, 3-((5-(3-chlorophenyl)-7H-pyrrolo[2,3-d]pyrimidin-4-yl)amino)-2-methylpropan-1-ol] | < 1 µM | < 1 µM |  | 
Cc1cnccc1-c1c[nH]c2ncnc(N3CCOCC3)c12 [Compound 37, 4-(5-(3-methylpyridin-4-yl)-7H-pyrrolo[2,3-d]pyrimidin-4-yl)morpholine] | > 5 µM | > 5 µM |  | 
CC(=O)N1CCN(c2ncnc3[nH]cc(-c4cccc(Cl)c4)c23)CC1 [Compound 45, 1-(4-(5-(3-chlorophenyl)-7H-pyrrolo[2,3-d]pyrimidin-4-yl)piperazin-1-yl)ethan-1-one] | < 1 µM | 1 to 5 µM |  | 
CCNc1ncnc2[nH]cc(-c3cccc(Cl)c3)c12 [Compound 49, 5-(3-chlorophenyl)-N-ethyl-7H-pyrrolo[2,3-d]pyrimidin-4-amine] | < 1 µM | < 1 µM |  | 
CCN(CC)CCNc1ncnc2[nH]cc(-c3cccc(Cl)c3)c12 [Compound 82, N1-(5-(3-chlorophenyl)-7H-pyrrolo[2,3-d]pyrimidin-4-yl)-N2,N2-diethylethane-1,2-diamine] | > 5 µM | > 5 µM |  | 
Cc1cccc(CNc2ncnc3[nH]cc(-c4cccc(Cl)c4)c23)c1 [Compound 91, 5-(3-chlorophenyl)-N-(3-methylbenzyl)-7H-pyrrolo[2,3-d]pyrimidin-4-amine] | > 5 µM | > 5 µM |  | 
c1ncc(-c2c[nH]c3ncnc(N4CCOCC4)c23)cn1 [Compound 36, 4-(5-(pyrimidin-5-yl)-7H-pyrrolo[2,3-d]pyrimidin-4-yl)morpholine] | > 5 µM | > 5 µM |  | 
COC1CCN(c2ncnc3[nH]cc(-c4cccc(Cl)c4)c23)CC1 [Compound 110, 5-(3-chlorophenyl)-4-(4-methoxypiperidin-1-yl)-7H-pyrrolo[2,3-d]pyrimidine] | < 1 µM | < 1 µM |  | 
CS(=O)(=O)c1cccc(-c2c[nH]c3ncnc(N4CCOCC4)c23)c1 [Compound 39, 4-(5-(3-(methylsulfonyl)phenyl)-7H-pyrrolo[2,3-d]pyrimidin-4-yl)morpholine] | > 5 µM | > 5 µM |  | 
CC(=O)NCC(C)CNc1ncnc2[nH]cc(-c3cccc(Cl)c3)c12 (stereo not shown) [Compound 129, N-(3-((5-(3-chlorophenyl)-7H-pyrrolo[2,3-d]pyrimidin-4-yl)amino)-2-methylpropyl)acetamide] | < 1 µM | < 1 µM |  | 
CS(=O)(=O)c1ccc(-c2c[nH]c3ncnc(N4CCOCC4)c23)cc1 [Compound 40, 4-(5-(4-(methylsulfonyl)phenyl)-7H-pyrrolo[2,3-d]pyrimidin-4-yl)morpholine] | > 5 µM | > 5 µM |  | 
c1nc(N2CCOCC2)c2c(-c3cnoc3)c[nH]c2n1 [Compound 42, 4-(5-(isoxazol-4-yl)-7H-pyrrolo[2,3-d]pyrimidin-4-yl)morpholine] | < 1 µM | 1 to 5 µM |  | 
CC(=O)N(C)CC(C)CN(C)c1ncnc2[nH]cc(-c3cccc(Cl)c3)c12 (stereo not shown) [Compound 128] | 1 to 5 µM | < 1 µM |  | 
CCN1CCCC1CNc1ncnc2[nH]cc(-c3cccc(Cl)c3)c12 (stereo not shown) [Compound 80, 5-(3-chlorophenyl)-N-((1-ethylpyrrolidin-2-yl)methyl)-7H-pyrrolo[2,3-d]pyrimidin-4-amine] | > 5 µM | > 5 µM |  | 
O=C(O)c1ccc(Nc2nc(N3CCOCC3)c3c(-c4cccc(Cl)c4)c[nH]c3n2)cc1 [Compound 100, 4-((5-(3-chlorophenyl)-4-morpholino-7H-pyrrolo[2,3-d]pyrimidin-2-yl)amino)benzoic acid] | < 1 µM | 1 to 5 µM |  | 
Clc1cccc(-c2c[nH]c3ncnc(NCCN4CCCC4)c23)c1 [Compound 83, 5-(3-chlorophenyl)-N-(2-(pyrrolidin-1-yl)ethyl)-7H-pyrrolo[2,3-d]pyrimidin-4-amine] | > 5 µM | > 5 µM |  | 
C=CCNc1ncnc2[nH]cc(-c3cccc(Cl)c3)c12 [Compound 53, N-allyl-5-(3-chlorophenyl)-7H-pyrrolo[2,3-d]pyrimidin-4-amine] | < 1 µM | < 1 µM |  | 
Clc1cccc(-c2c[nH]c3ncnc(N4CCC(Cc5ccccc5)CC4)c23)c1 [Compound 90, 4-(4-benzylpiperidin-1-yl)-5-(3-chlorophenyl)-7H-pyrrolo[2,3-d]pyrimidine] | > 5 µM | > 5 µM |  | 
CNS(=O)(=O)c1ccc(Nc2nc(N3CCOCC3)c3c(-c4cccc(Cl)c4)c[nH]c3n2)cc1 [Compound 98, 4-((5-(3-chlorophenyl)-4-morpholino-7H-pyrrolo[2,3-d]pyrimidin-2-yl)amino)-N-methylbenzenesulfonamide] | < 1 µM | < 1 µM |  | 
